Measurements from PubChem BioAssay (NCI).
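GI50 = concentration required for 50% inhibition of growth. TGI marks complete inhibition of growth.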

Assays:
Assay in all cases: NCI-60 cell line screen, 384-well format
SF-539 CNS = tested on: SF-539 CNS
COLO 205 colon = tested on: COLO 205 colon
OVCAR-4 ovarian = tested on: OVCAR-4 ovarian
HL-60(TB) leukemia = tested on: HL-60(TB) leukemia
K-562 leukemia = tested on: K-562 leukemia
SNB-75 CNS = tested on: SNB-75 CNS
HS 578T breast = tested on: HS 578T breast
NCI/ADR-RES ovarian = tested on: NCI/ADR-RES ovarian
MDA-MB-231 breast = tested on: MDA-MB-231 breast
CAKI-1 renal = tested on: CAKI-1 renal
U251 glioblastoma = tested on: U251 glioblastoma
OVCAR-5 ovarian = tested on: OVCAR-5 ovarian
UO-31 renal = tested on: UO-31 renal
OVCAR-3 ovarian = tested on: OVCAR-3 ovarian
NCI-H460 NSCLC = tested on: NCI-H460 NSCLC
DU-145 prostate = tested on: DU-145 prostate
HCT-116 colon = tested on: HCT-116 colon
T-47D breast = tested on: T-47D breast
NCI-H322M lung = tested on: NCI-H322M lung
MOLT-4 leukemia = tested on: MOLT-4 leukemia
SN12C renal = tested on: SN12C renal
A549 NSCLC = tested on: A549 NSCLC
MDA-MB-468 breast = tested on: MDA-MB-468 breast
786-0 renal = tested on: 786-0 renal
BT-549 breast = tested on: BT-549 breast
TK-10 renal = tested on: TK-10 renal
SF-268 CNS = tested on: SF-268 CNS
RXF 393 renal = tested on: RXF 393 renal
HCC-2998 colon = tested on: HCC-2998 colon
SF-295 CNS = tested on: SF-295 CNS
SK-OV-3 ovarian = tested on: SK-OV-3 ovarian
IGROV1 ovarian = tested on: IGROV1 ovarian
HOP-92 NSCLC = tested on: HOP-92 NSCLC
MALME-3M melanoma = tested on: MALME-3M melanoma
CCRF-CEM leukemia = tested on: CCRF-CEM leukemia
HCT-15 colon = tested on: HCT-15 colon
UACC-257 melanoma = tested on: UACC-257 melanoma
SW-620 colon = tested on: SW-620 colon
SK-MEL-28 melanoma = tested on: SK-MEL-28 melanoma
NCI-H23 lung = tested on: NCI-H23 lung
OVCAR-8 ovarian = tested on: OVCAR-8 ovarian
SNB-19 CNS = tested on: SNB-19 CNS
A498 renal = tested on: A498 renal
EKVX NSCLC = tested on: EKVX NSCLC
HOP-62 NSCLC = tested on: HOP-62 NSCLC
HT29 colon = tested on: HT29 colon
SR leukemia = tested on: SR leukemia
KM12 colon = tested on: KM12 colon
RPMI-8226 leukemia = tested on: RPMI-8226 leukemia
PC-3 prostate = tested on: PC-3 prostate
NCI-H522 lung = tested on: NCI-H522 lung
SK-MEL-5 melanoma = tested on: SK-MEL-5 melanoma
MCF7 breast = tested on: MCF7 breast
MDA-MB-435 melanoma = tested on: MDA-MB-435 melanoma
UACC-62 melanoma = tested on: UACC-62 melanoma
ACHN renal = tested on: ACHN renal
NCI-H226 lung = tested on: NCI-H226 lung
M14 melanoma = tested on: M14 melanoma
SK-MEL-2 melanoma = tested on: SK-MEL-2 melanoma

`O=C1CCC(N2Cc3cc(CNC(=O)C(F)(F)c4ccc(Cl)cc4)ccc3C2=O)C(=O)N1` (stereo not given) showed a GI50 (SF-539 CNS) greater than 100 µM, a TGI (SF-539 CNS) greater than 100 µM and a GI50 (COLO 205 colon) of 0.142 µM. It also gave a TGI (COLO 205 colon) greater than 100 µM, a GI50 (OVCAR-4 ovarian) greater than 100 µM and a TGI (OVCAR-4 ovarian) greater than 100 µM. The GI50 (HL-60(TB) leukemia) was less than 0.01 µM, the TGI (HL-60(TB) leukemia) was 0.0106 µM and the GI50 (K-562 leukemia) was 68.4 µM. For the same compound, the TGI (K-562 leukemia) was greater than 100 µM, the GI50 (SNB-75 CNS) was 0.463 µM and the TGI (SNB-75 CNS) was greater than 100 µM. For the same compound, the GI50 (HS 578T breast) was 0.0781 µM, the TGI (HS 578T breast) was greater than 100 µM and the GI50 (NCI/ADR-RES ovarian) was 24.7 µM. The TGI (NCI/ADR-RES ovarian) was greater than 100 µM, the GI50 (MDA-MB-231 breast) was 0.087 µM and the TGI (MDA-MB-231 breast) was greater than 100 µM. For the same compound, the GI50 (CAKI-1 renal) was greater than 100 µM, the TGI (CAKI-1 renal) was greater than 100 µM and the GI50 (U251 glioblastoma) was greater than 100 µM. For the same compound, the TGI (U251 glioblastoma) was greater than 100 µM, the GI50 (OVCAR-5 ovarian) was greater than 100 µM and the TGI (OVCAR-5 ovarian) was greater than 100 µM. It also gave a GI50 (UO-31 renal) greater than 100 µM, a TGI (UO-31 renal) greater than 100 µM and a GI50 (OVCAR-3 ovarian) greater than 100 µM. For the same compound, the TGI (OVCAR-3 ovarian) was greater than 100 µM, the GI50 (NCI-H460 NSCLC) was greater than 100 µM and the TGI (NCI-H460 NSCLC) was greater than 100 µM. It also gave a GI50 (DU-145 prostate) greater than 100 µM, a TGI (DU-145 prostate) greater than 100 µM and a GI50 (HCT-116 colon) greater than 100 µM. For the same compound, the TGI (HCT-116 colon) was greater than 100 µM, the GI50 (T-47D breast) was 0.0216 µM and the TGI (T-47D breast) was 17.8 µM. The GI50 (NCI-H322M lung) was greater than 100 µM, the TGI (NCI-H322M lung) was greater than 100 µM and the GI50 (MOLT-4 leukemia) was less than 0.01 µM. The TGI (MOLT-4 leukemia) was 0.0133 µM, the GI50 (SN12C renal) was greater than 100 µM and the TGI (SN12C renal) was greater than 100 µM. The GI50 (A549 NSCLC) was greater than 100 µM, the TGI (A549 NSCLC) was greater than 100 µM and the GI50 (MDA-MB-468 breast) was less than 0.01 µM. For the same compound, the TGI (MDA-MB-468 breast) was 0.0301 µM, the GI50 ([…]-0 renal) was greater than 100 µM and the TGI (786-0 renal) was greater than 100 µM. For the same compound, the GI50 (BT-549 breast) was 0.0613 µM, the TGI (BT-549 breast) was 32.2 µM and the GI50 (TK-10 renal) was greater than 100 µM. It also gave a TGI (TK-10 renal) greater than 100 µM, a GI50 (SF-268 CNS) greater than 100 µM and a TGI (SF-268 CNS) greater than 100 µM. The GI50 (RXF 393 renal) was greater than 100 µM, the TGI (RXF 393 renal) was greater than 100 µM and the GI50 (HCC-2998 colon) was 0.0908 µM. It also gave a TGI (HCC-2998 colon) greater than 100 µM, a GI50 (SF-295 CNS) greater than 100 µM and a TGI (SF-295 CNS) greater than 100 µM. For the same compound, the GI50 (SK-OV-3 ovarian) was greater than 100 µM, the TGI (SK-OV-3 ovarian) was greater than 100 µM and the GI50 (IGROV1 ovarian) was 0.568 µM. For the same compound, the TGI (IGROV1 ovarian) was greater than 100 µM, the GI50 (HOP-92 NSCLC) was 0.21 µM and the TGI (HOP-92 NSCLC) was greater than 100 µM. It also gave a GI50 (MALME-3M melanoma) of 0.101 µM, a TGI (MALME-3M melanoma) greater than 100 µM and a GI50 (CCRF-CEM leukemia) of less than 0.01 µM. The TGI (CCRF-CEM leukemia) was 0.015 µM, the GI50 (HCT-15 colon) was 0.744 µM and the TGI (HCT-15 colon) was greater than 100 µM. For the same compound, the GI50 (UACC-257 melanoma) was greater than 100 µM, the TGI (UACC-257 melanoma) was greater than 100 µM and the GI50 (SW-620 colon) was 0.0885 µM. For the same compound, the TGI (SW-620 colon) was greater than 100 µM, the GI50 (SK-MEL-28 melanoma) was greater than 100 µM and the TGI (SK-MEL-28 melanoma) was greater than 100 µM. The GI50 (NCI-H23 lung) was greater than 100 µM, the TGI (NCI-H23 lung) was greater than 100 µM and the GI50 (OVCAR-8 ovarian) was 0.059 µM. For the same compound, the TGI (OVCAR-8 ovarian) was greater than 100 µM, the GI50 (SNB-19 CNS) was greater than 100 µM and the TGI (SNB-19 CNS) was greater than 100 µM. The GI50 (A498 renal) was greater than 100 µM, the TGI (A498 renal) was greater than 100 µM and the GI50 (EKVX NSCLC) was greater than 100 µM. It also gave a TGI (EKVX NSCLC) greater than 100 µM, a GI50 (HOP-62 NSCLC) of 0.835 µM and a TGI (HOP-62 NSCLC) greater than 100 µM.

`Nc1nc(OCc2ccccc2)c2[nH]cnc2n1` was tested, and the GI50 (SF-539 CNS) was 34.7 µM, the GI50 (COLO 205 colon) was 65.7 µM and the GI50 (HT29 colon) was 53.3 µM. For the same compound, the GI50 (OVCAR-4 ovarian) was 64.4 µM, the GI50 (HL-60(TB) leukemia) was 30.2 µM and the TGI (HL-60(TB) leukemia) was 78.3 µM. For the same compound, the GI50 (SR leukemia) was 30.9 µM, the TGI (SR leukemia) was 78.4 µM and the GI50 (SNB-75 CNS) was 19.6 µM. The TGI (SNB-75 CNS) was 76.5 µM, the GI50 (HS 578T breast) was 16.6 µM and the TGI (HS 578T breast) was 43.7 µM. The GI50 (KM12 colon) was 66.1 µM, the GI50 (MDA-MB-231 breast) was 34.6 µM and the GI50 (CAKI-1 renal) was 20.8 µM. The TGI (CAKI-1 renal) was 55.9 µM, the GI50 (U251 glioblastoma) was 38.3 µM and the GI50 (OVCAR-5 ovarian) was 70.4 µM. For the same compound, the GI50 (OVCAR-3 ovarian) was 69.1 µM, the GI50 (NCI-H460 NSCLC) was 37.8 µM and the GI50 (DU-145 prostate) was 52.3 µM. It also gave a GI50 (T-47D breast) of 34.5 µM, a GI50 (NCI-H322M lung) of 57.5 µM and a GI50 (MOLT-4 leukemia) of 28.9 µM. It also gave a GI50 (RPMI-8226 leukemia) of 18.5 µM, a TGI (RPMI-8226 leukemia) of 37.8 µM and a GI50 (A549 NSCLC) of 64.5 µM. It also gave a GI50 (MDA-MB-468 breast) of 25 µM, a TGI (MDA-MB-468 breast) of 61 µM and a GI50 ([…]-0 renal) of 35.9 µM. It also gave a GI50 (PC-3 prostate) of 55.2 µM, a GI50 (BT-549 breast) of 26.9 µM and a TGI (BT-549 breast) of 78.5 µM. For the same compound, the GI50 (TK-10 renal) was 15.8 µM, the TGI (TK-10 renal) was 60.7 µM and the GI50 (SF-268 CNS) was 66.3 µM. It also gave a GI50 (RXF 393 renal) of 32.5 µM, a TGI (RXF 393 renal) of 88.7 µM and a GI50 (HCC-2998 colon) of 30.8 µM. For the same compound, the GI50 (NCI-H522 lung) was 20.8 µM, the TGI (NCI-H522 lung) was 60.7 µM and the GI50 (SK-OV-3 ovarian) was 23.2 µM. For the same compound, the TGI (SK-OV-3 ovarian) was 50.1 µM, the GI50 (SK-MEL-5 melanoma) was 27.9 µM and the GI50 (IGROV1 ovarian) was 25.7 µM. It also gave a TGI (IGROV1 ovarian) of 90.5 µM, a GI50 (MCF7 breast) of 56.2 µM and a GI50 (HOP-92 NSCLC) of 36.8 µM. It also gave a GI50 (MALME-3M melanoma) of 30.9 µM, a TGI (MALME-3M melanoma) of 79.1 µM and a GI50 (CCRF-CEM leukemia) of 28.4 µM. The TGI (CCRF-CEM leukemia) was 88.9 µM, the GI50 (HCT-15 colon) was 28.4 µM and the GI50 (MDA-MB-435 melanoma) was 52.4 µM. The GI50 (UACC-62 melanoma) was 31.4 µM, the GI50 (UACC-257 melanoma) was 61.6 µM and the GI50 (ACHN renal) was 46.1 µM. It also gave a GI50 (NCI-H226 lung) of 29.3 µM, a TGI (NCI-H226 lung) of 80.7 µM and a GI50 (SK-MEL-28 melanoma) of 66.9 µM. It also gave a GI50 (NCI-H23 lung) of 31.8 µM, a GI50 (OVCAR-8 ovarian) of 66.4 µM and a GI50 (A498 renal) of 19.6 µM. For the same compound, the TGI (A498 renal) was 91.9 µM, the GI50 (M14 melanoma) was 30.4 µM and the TGI (M14 melanoma) was 95.8 µM. For the same compound, the GI50 (EKVX NSCLC) was 43.3 µM, the GI50 (SK-MEL-2 melanoma) was 37.2 µM and the TGI (SK-MEL-2 melanoma) was 65.8 µM. For the same compound, the GI50 (HOP-62 NSCLC) was 36.7 µM.
